In one experiment the test system is nerves of the lips. The experiment can be described thus: Topical application of ester ointment or cream on the lips of human subjects: sensual, sensational, plumping or numbing feelings. Type of experiment: in vivo. The conditions noted are these: for sensual, sensational or plumping feelings of the lips / time after application until the lips experienced the feelings / duration of the feelings of the lips: 10% in water-non-washable ointment, human; for feelings of the lips: cream or ointment containing 10%, topically applied to lips (general description). An excerpt: The mucocutaneous organs or sites include lips, mouth, gum, nostrils, nipples, vulva, vagina, penis and anus.
Ethyl glycolate 10 g was mixed with 90 g ointment prepared from white petrolatum 50 parts, mineral oil 40 parts and white beeswax 10 parts. The composition thus prepared contained 10% ethyl glycolate in a hydrophobic ointment that was not washable with water (a water-non-washable ointment).
A subject, topically applied the above 10% ethyl glycolate ointment on their lips.
L-Ethyl lactate 10 g was mixed with 90 g ointment prepared from white petrolatum 50 parts, mineral oil 40 parts and white beeswax 10 parts. The composition thus prepared contained 10% L-ethyl lactate in water-non-washable ointment. A subject, topically applied the above 10% L-ethyl lactate ointment on their lips.
DL-Diethyl malate 10 g was mixed with 90 g ointment prepared from white petrolatum 50 parts, mineral oil 40 parts and white beeswax 10 parts. The composition thus prepared contained 10% DL-diethyl malate in a water-non-washable ointment.
A subject, topically applied the above 10% DL-diethyl malate ointment on their lips.
D-Diethyl tartarate 10 g was mixed with 90 g ointment prepared from white petrolatum 50 parts, mineral oil 40 parts and white beeswax 10 parts. The composition thus prepared contained 10% D-diethyl tartarate in a water-non-washable ointment.
A subject, topically applied the above 10% D-diethyl tartarate ointment on their lips.
L-Diethyl tartarate 10 g was mixed with 90 g ointment prepared from white petrolatum 50 parts, mineral oil 40 parts and white beeswax 10 parts. The composition thus prepared contained 10% L-diethyl tartarate in a water-non-washable ointment. A subject, topically applied the above 10% L-diethyl tartarate ointment on their lips.
Trimethyl citrate 10 g was mixed with 90 g ointment prepared from white petrolatum 50 parts, mineral oil 40 parts and white beeswax 10 parts. The composition thus prepared contained 10% trimethyl citrate in a water-non-washable ointment.
A subject, topically applied the above 10% trimethyl citrate ointment on their lips.
Lidocaine 5 g was dissolved in warm propylene glycol 20 ml, and the solution thus obtained was mixed with 75 g ointment prepared from white petrolatum 50 parts, mineral oil 40 parts and white beeswax 10 parts. The composition thus prepared contained 5% lidocaine in a water-non-washable ointment.
A subject, topically applied the above 5% lidocaine ointment on their lips.
Tripropyl citrate 10 g was mixed with 90 g ointment prepared from white petrolatum 50 parts, mineral oil 40 parts and white beeswax 10 parts. The composition thus prepared contained 10% tripropyl citrate in a water-non-washable ointment.
A subject, topically applied the above 10% tripropyl citrate ointment on their lips.
Tri-isopropyl citrate 10 g was mixed with 90 g ointment prepared from white petrolatum 50 parts, mineral oil 40 parts and white beeswax 10 parts. The composition thus prepared contained 10% tri-isopropyl citrate in a water-non-washable ointment.
A subject, topically applied the above 10% tri-isopropyl citrate ointment on their lips.

Experiment [1] deals with itchy and eczematous skin (atopic eczema). The experiment is described as follows: Topical application on itching, eczematous skin of a human subject: relief of itch. Type of experiment: in vivo. The conditions noted are these: for effect on itch associated with eczema or psoriasis / time after topical application until the itch disappears: cream or ointment containing 10%, topically applied to eczematous or psoriatic lesions (general description). As to the method:
A composition comprising a hydroxy-oligocarboxylic ester, preferably a hydroxydicarboxylic ester, and more preferably a hydroxytricarboxylic ester, can also be topically applied to mucocutaneous or skin lesions. For example, a cream or ointment containing 10% tripropyl citrate or tri-isopropyl citrate can be topically applied to eczematous or psoriatic lesions twice daily for 4 to 16 weeks.
Tripropyl citrate 10 g and propylene glycol 20 ml were mixed with hydrophilic ointment or oil-in-water emulsion 70 g. The composition thus prepared contained 10% tripropyl citrate in water-soluble oil-in-water emulsion.
A subject, having atopic eczema with severe itching skin, topically applied the above 10% tripropyl citrate cream on their right leg with itchy eczematous lesions. […]

In experiment [2] the test system is mucocutaneous organs or sites. The experiment is described as follows: Topical application to mucocutaneous organs or sites: general findings on sensuous, sensational and mild anesthetic effects. Type of experiment: in vivo, human. To be noted: for sensuous or mild anesthetic effect: topical application, same conditions as the hydroxy-oligocarboxylic esters. An excerpt:
The present invention is based on the discovery that topical application of a hydroxy-oligocarboxylic ester, preferably a hydroxydicarboxylic ester or more preferably a hydroxytricarboxylic ester such as tripropyl citrate on topical application can produce sensuous, sensational and mild anesthetic effects on mucocutaneous organs or sites, such as lips, mouth, gum, nostrils, nipples, vulva, vagina, penis and anus. […] The sensuous and sensational effects produced by the hydroxy-oligocarboxylic ester, preferably a hydroxydicarboxylic ester or more preferably a hydroxytricarboxylic ester are quite different from the numbing effects induced by local anesthetics such as lidocaine and procaine. The sensuous, sensational and mild anesthetic effects produced by the hydroxy-oligocarboxylic ester according to the present invention generally last from a few minutes to a few hours. Such nerve-acting sensation or effect has many cosmetic, dental and dermatological applications. For example, a lipstick or lip balm comprising a hydroxy-oligocarboxylic ester, preferably a hydroxydicarboxylic ester or more preferably a hydroxytricarboxylic ester, can provide a sensuous or sensational feeling after topical application to lips of a human subject. Such sensuous action and certain anesthetic effects on nervous system produced by the hydroxy-oligocarboxylic ester can have beneficial applications such as to relieve itch or pain of lips, mouth, gum, nostrils, nipples, vulva, vagina, penis and anus, and for conditions associated with eczema, hemorrhoids, dry or aging-associated changes of the vulva and vagina.

In experiment [3] the test system is itchy and eczematous skin (atopic eczema). The experiment is described as follows: Topical application on itching, eczematous skin of a human subject: relief of itch. Type of experiment: in vivo. To be noted: 10% in water-non-washable ointment, itching skin of right lower leg, subject with atopic eczema.
Where [4] appears, read: 5% in water-non-washable ointment with propylene glycol, topically applied on lips, subject.
[5] abbreviates: 10% cream (water-soluble oil-in-water emulsion with propylene glycol), itchy eczematous lesions of right leg, subject with atopic eczema.

Where a name gives a salt, the structure may show the parent alone.

Regarding `COC(=O)CC(O)(CC(=O)OC)C(=O)OC` [trimethyl citrate, Trimethyl citrate], in the experiment on nerves of the lips (topically applied on lips), the “sensual, sensational or plumping feelings of the lips” value (“sensual … of the lips” below) was “very slight sensual and plumping feelings”; the “time after application until the lips experienced the feelings” value is listed as “one to two”.
Take `CC(C)OC(=O)CC(O)(CC(=O)OC(C)C)C(=O)OC(C)C` [tri-isopropyl citrate, Tri-isopropyl citrate]: in experiment [1], the “effect on itch associated with eczema or psoriasis” value is on record as “usually disappears” and the “time after topical application until the itch disappears” value is “a few”. In addition, in the experiment on nerves of the lips (topically applied on lips), the “duration of the feelings of the lips” value is “about an hour”; the “sensual … of the lips” value is “sensual and sensational feelings”; the “time after application until the lips experienced the feelings” value is “a few”. The “feelings of the lips” value in the experiment with nerves of the lips was “sensual and sensational pleasure with very mild anesthetic effects”.
Regarding `CCOC(=O)CO` [ethyl glycolate, Ethyl glycolate, reference compound], in experiment [2], the “sensuous or mild anesthetic effect” value is reported as “does not produce a sensuous or mild anesthetic effect”. In the experiment with nerves of the lips (topically applied on lips), the “sensual … of the lips” value is given as “no sensual or sensational feelings during the next 30 minutes”.
`CCOC(=O)[C@H](O)[C@@H](O)C(=O)OCC` [L-diethyl tartarate, L-Diethyl tartarate]: in the experiment with nerves of the lips (topically applied on lips), the “duration of the feelings of the lips” value was in the range of 10 to 20 min; the “sensual … of the lips” value is “slight sensual and plumping feelings”; the “time after application until the lips experienced the feelings” value is reported as “one to two”.
Regarding `O=C(CC(O)(CC(=O)OCc1ccccc1)C(=O)OCc1ccccc1)OCc1ccccc1` [tribenzyl citrate, Tribenzyl citrate], in the experiment on nerves of the lips (topically applied on lips), the “sensual … of the lips” value is “slight sensual and sensational feelings”; the “time after application until the lips experienced the feelings” value was “a few”.
As to `CCN(CC)CC(=O)Nc1c(C)cccc1C` [lidocaine, Lidocaine, reference compound], in the experiment on nerves of the lips (setting [4]), the “duration of the numbing effect” value was “several”, the “numbing effect on the lips” value is “the lips felt numb” and the “time after application until the lips felt numb” value is “a few”.
Consider `CCOC(=O)CC(O)C(=O)OCC` (racemic) [DL-diethyl malate, DL-Diethyl malate], for which, in the experiment on nerves of the lips (topically applied on lips), the “duration of the feelings of the lips” value fell in the range of 10 to 20 min; the “sensual … of the lips” value was “sensual and plumping feelings”; the “time after application until the lips experienced the feelings” value is “one to two”.
As to `CCOC(=O)C(C)O` (stereo not shown) [ethyl lactate], the “sensuous or mild anesthetic effect” value in experiment [2] is given as “does not produce a sensuous or mild anesthetic effect”.
`CCOC(=O)[C@@H](O)[C@H](O)C(=O)OCC` [D-diethyl tartarate, D-Diethyl tartarate]: in the experiment on nerves of the lips (topically applied on lips), the “duration of the feelings of the lips” value was 10 to 20 min; the “sensual … of the lips” value was “slight sensual and plumping feelings”; the “time after application until the lips experienced the feelings” value was “one to two”.
Consider `CCOC(=O)CC(O)(CC(=O)OCC)C(=O)OCC` [triethyl citrate, Triethyl citrate], for which, in experiment [3], the effect on itch result is on record as “the itch stopped”, the “time after application until the itch stopped” value is listed as “a few” and the “time the skin remained free of itch” value was found to be 4 h. Besides, in the experiment on nerves of the lips (topically applied on lips), the “duration of the feelings of the lips” value was 20 to 30 min; the “sensual … of the lips” value was “sensual and plumping feelings”; the “time after application until the lips experienced the feelings” value was “one to two”. In addition, in the experiment with nerves of the lips, the “feelings of the lips” value was “sensual and sensational pleasure with very mild anesthetic effects”.
Regarding `CCCOC(=O)CC(O)(CC(=O)OCCC)C(=O)OCCC` [tripropyl citrate, Tripropyl citrate], the “sensuous and sensational effects compared with trimethyl citrate” value in experiment [2] (strength and duration, compared with trimethyl citrate) is “much stronger and longer-lasting sensuous and sensational effects”. Moreover, in experiment [1] (setting [5]), the effect on itch entry is listed as “the itch disappeared completely”, the “time after application until the itch disappeared” value is given as “a few” and the “time the skin remained free of itch” value came to 4 h. In experiment [1], the “effect on itch associated with eczema or psoriasis” value was “usually disappears” and the “time after topical application until the itch disappears” value is listed as “a few”. In the experiment on nerves of the lips (topically applied on lips), the “duration of the feelings of the lips” value lay within 90 to 120 min; the “sensual … of the lips” value was “sensual and sensational feelings”; the “time after application until the lips experienced the feelings” value is listed as “a few”. In addition, the “feelings of the lips” value with nerves of the lips is “sensual and sensational pleasure with very mild anesthetic effects”.
On to `CCOC(=O)[C@H](C)O` [L-ethyl lactate, L-Ethyl lactate, reference compound], for which the “sensual … of the lips” value with nerves of the lips (topically applied on lips) was “no sensual or sensational feelings during the next 30 minutes”.

Source of the values: patent US7709014B2, “Hydroxy-oligocarboxylic esters: effects on nerve and use for cutaneous and mucocutaneous organs or sites” (priority 2005, dated 2010).
